Patent US6599893B2, “Cephalosporin antibiotics and prodrugs thereof” (Essential Therapeutics, Inc., priority 2000, dated 2003)
Converted amounts (≈) assume the structure as drawn.

Legend:
Type in all cases: cell-based
[1] = test system: Staphylococcus aureus ATCC 29213 (MSSA); assay: Broth microdilution MIC, S. aureus ATCC 29213; conditions: Staphylococcus aureus ATCC 29213 (MSSA); for MIC: read-out: MIC S. a. 29213
Experimental: (§1) Compounds were evaluated for antimicrobial activity against a panel of bacterial strains using a broth microdilution assay performed as recommended by the NCCLS (NCCLS (National Committee for Clinical Laboratory Standards). 1993. Methods for dilution antimicrobial susceptibility tests for bacteria that grow aerobically. NCCLS Document M7-A3, 1993. In: NCCLS Antimicrobial Susceptibility Testing, 3rd Ed.)
(§2) The minimum inhibitory concentration (MIC) is defined as the lowest concentration of a compound that prevents the growth of the bacteria.

[2] = test system: Staphylococcus aureus COL (MRSA, non-β-lactamase producing); assay: Broth microdilution MIC, S. aureus COL; conditions: Staphylococcus aureus COL (MRSA, non-β-lactamase producing); for MIC: read-out: MIC S. a. COL
Experimental: as §1, §2

[3] = test system: Staphylococcus aureus 76 (MRSA, β-lactamase producing); assay: Broth microdilution MIC, S. aureus 76; conditions: Staphylococcus aureus 76 (MRSA, β-lactamase producing); for MIC: read-out: MIC S. a. 76
Experimental: as §1, §2

[4] = test system: Enterococcus faecalis ATCC 29212; assay: Broth microdilution MIC, E. faecalis ATCC 29212; conditions: Enterococcus faecalis ATCC 29212; for MIC: ATCC29212, read-out: MIC E. f. 29212
Experimental: as §1, §2

[5] = test system: Enterococcus faecium ATCC 35667; assay: Broth microdilution MIC, E. faecium ATCC 35667; conditions: Enterococcus faecium ATCC 35667; for MIC: ATCC35667, read-out: MIC E. f. 35667
Experimental: as §1, §2

[6] = test system: Staphylococcus aureus Smith (MSSA); assay: Broth microdilution MIC, S. aureus Smith; conditions: Staphylococcus aureus Smith (MSSA); read-out: MIC S. a. Smith
Experimental: as §1, §2

Structure (SMILES)	MIC S. a. 29213 [1] [µg/mL]	MIC S. a. COL [2] [µg/mL]	MIC S. a. 76 [3] [µg/mL]	MIC E. f. 29212 [4] [µg/mL]	MIC E. f. 35667 [5] [µg/mL]	MIC [1] [µg/mL]	MIC [2] [µg/mL]	MIC [3] [µg/mL]	MIC [4] [µg/mL]	MIC [5] [µg/mL]	MIC [6] [µg/mL]
CON=C(C(=O)NC1C(=O)N2C(C(=O)O)=C(Sc3ccc(Br)cc3)CSC12)c1csc(N)n1 (stereo not drawn) [Compound 6]	<0.015	–	32 (≈ 56.1 µM)	16 (≈ 28 µM)	16 (≈ 28 µM)	–	–	–	–	–	–
Nc1nc(/C(=N/OC2CCCC2)C(=O)N[C@@H]2C(=O)N3C(C(=O)O)=C(Sc4ccccc4I)CS[C@H]23)cs1 [Compound 9]	<0.25	1 (≈ 1.49 µM)	2 (≈ 2.98 µM)	2 (≈ 2.98 µM)	2 (≈ 2.98 µM)	–	–	–	–	–	–
N#Cc1ccccc1SC1=C(C(=O)O)N2C(=O)[C@@H](NC(=O)/C(=N\OC3CCCC3)c3csc(N)n3)[C@H]2SC1 [Compound 12]	1 (≈ 1.75 µM)	4 (≈ 7.01 µM)	8 (≈ 14 µM)	8 (≈ 14 µM)	8 (≈ 14 µM)	–	–	–	–	–	–
Nc1nc(/C(=N/OCCF)C(=O)N[C@@H]2C(=O)N3C(C(=O)O)=C(Sc4ccnn4-c4ccccc4)CS[C@H]23)cs1 [Compound 14]	–	–	–	–	–	1 (≈ 1.7 µM)	8 (≈ 13.6 µM)	16 (≈ 27.1 µM)	32 (≈ 54.3 µM)	16 (≈ 27.1 µM)	–
Nc1nc(/C(=N/OCCF)C(=O)N[C@@H]2C(=O)N3C(C(=O)O)=C(Sc4ccnn4-c4ccccc4)CS[C@H]23)c(Cl)s1 [Compound 16]	–	–	–	–	–	0.5 (≈ 0.801 µM)	2 (≈ 3.2 µM)	4 (≈ 6.41 µM)	1 (≈ 1.6 µM)	4 (≈ 6.41 µM)	0.5 (≈ 0.801 µM)
CC(C)(C)O/N=C(\C(=O)N[C@@H]1C(=O)N2C(C(=O)O)=C(Sc3ccnn3-c3ccccc3)CS[C@H]12)c1csc(N)n1 [Compound 18]	–	–	–	–	–	1 (≈ 1.67 µM)	8 (≈ 13.3 µM)	16 (≈ 26.7 µM)	2 (≈ 3.33 µM)	16 (≈ 26.7 µM)	1 (≈ 1.67 µM)

Now from value to molecule:

MIC S. a. 29213 [1] [µg/mL]	MIC S. a. COL [2] [µg/mL]	MIC S. a. 76 [3] [µg/mL]	MIC E. f. 29212 [4] [µg/mL]	MIC E. f. 35667 [5] [µg/mL]	MIC [1] [µg/mL]	MIC [2] [µg/mL]	MIC [3] [µg/mL]	MIC [4] [µg/mL]	MIC [5] [µg/mL]	MIC [6] [µg/mL]	Structure (SMILES)
0.5 (≈ 0.876 µM)	16 (≈ 28 µM)	16 (≈ 28 µM)	>32	32 (≈ 56.1 µM)	–	–	–	–	–	–	CON=C(C(=O)NC1C(=O)N2C(C(=O)O)=C(Sc3ccccc3Br)CSC12)c1csc(N)n1 (stereo not drawn) [Compound 5]
<0.25	2 (≈ 3.31 µM)	4 (≈ 6.63 µM)	–	2 (≈ 3.31 µM)	–	–	–	–	–	–	Nc1nc(C(=NO)C(=O)NC2C(=O)N3C(C(=O)O)=C(Sc4ccccc4I)CSC23)cs1 (stereo not drawn) [Compound 7]
1 (≈ 1.62 µM)	32 (≈ 51.8 µM)	32 (≈ 51.8 µM)	–	32 (≈ 51.8 µM)	–	–	–	–	–	–	CON=C(C(=O)NC1C(=O)N2C(C(=O)O)=C(Sc3ccccc3I)CSC12)c1csc(N)n1 (stereo not drawn) [Compound 8]
0.5 (≈ 0.903 µM)	4 (≈ 7.22 µM)	8 (≈ 14.4 µM)	2 (≈ 3.61 µM)	2 (≈ 3.61 µM)	–	–	–	–	–	–	Nc1nc(C(=NO)C(=O)NC2C(=O)N3C(C(=O)O)=C(Sc4ccccc4-c4ccccc4)CSC23)cs1 (stereo not drawn) [Compound 10]
–	–	–	–	–	1 (≈ 1.84 µM)	16 (≈ 29.4 µM)	32 (≈ 58.9 µM)	2 (≈ 3.68 µM)	8 (≈ 14.7 µM)	–	Nc1nc(/C(=N/O)C(=O)N[C@@H]2C(=O)N3C(C(=O)O)=C(Sc4ccnn4-c4ccccc4)CS[C@H]23)cs1 [Compound 15]
